According to paper PMC10412636, “An analysis of interactions between three structurally diverse anthocyanidins, as well as their glucosides, and model biological membranes, albumin, and plasmid DNA” (Scientific Reports, 2023):

What was measured:
[1] = target: human serum albumin (HSA) (Homo sapiens, UniProt P02768); test: Quenching of natural fluorescence of human serum albumin; type: binding; details: HSA […] 10^–5 M, 37 °C
Procedure: The phenomenon of quenching the natural fluorescence of human serum albumin (HSA) was used to investigate the potential interaction of anthocyanins with this protein. […] Anthocyanins with concentrations ranging from 1 to 30 µM were added to HSA dissolved in phosphate buffer (1.5 × 10^–5 M) and then incubated at 37 °C for 20 min. Emission spectra were performed on a fluorimeter Cary Eclipse (Varian, San Diego, USA) at 37 °C. HSA fluorescence was excited with a wavelength of λ = 280 nm, the emission was measured in the range from 286 to 460 nm, and the fluorescence intensity was read at 345 nm where the emission maximum of HSA was located.
The Stern–Volmer equation was used to thoroughly describe the quenching mechanism of natural fluorescence and to determine the bindings parameters of HSA: anthocyanin complexes:4 F0/F=1+Kqτ0Q=1+KSV[Q] where F0—fluorescence intensity in the absence of anthocyanins (control sample), F—fluorescence intensity in the presence of anthocyanins, KSV—Stern–Volmer quenching constant (KSV = Kq·τ0), [Q]—concentration of quencher (tested compound), Kq—bimolecular quenching constant, τ0—a lifetime of the fluorophore in the absence of quencher the fluorescence lifetime of a biopolymer is calculated as 5 × 10^–9 s[51].
The apparent binding constants (Kb) and the number of binding sites (n) can be calculated using the following equation:5 log(F0-F/F]=logKb+nlog[Q]
F0 and F are the fluorescence intensities before and after the addition of the quencher. From the linear plot of log (F0 − F)/F versus log [Q], the value of Kb was obtained from the intercept.

[2] = DPH probe fluorescence anisotropy in MM liposomes; details: MM, negative = increase in anisotropy
Procedure: (§1) Two types of liposomes were used to study interactions with biological membranes: liposomes mimicking the composition of cancer cell membranes (mimic membrane liposome—MM) and liposomes formed from lipids extracted from human blood erythrocyte membranes (red blood cell membrane liposome—RBCM). […] Both lipids, dissolved in chloroform (MM liposome) and n-decane (RBCM liposome), were evaporated under a nitrogen atmosphere, and then dried in a desiccator for 90 min under a vacuum. The obtained dry lipid film was hydrated in phosphate buffer, pH 7.4, obtaining a concentration of 0.1 mg/ml, and then vortexed for one minute until a homogeneous, milky suspension was observed. The mixture was sonicated (Sonic, Milano, Italia) for 15 min keeping the sample in a bath of ice water, thus providing a cooling temperature of 0 °C. The suspension was then processed (extrusion) through polycarbonate filters with pore diameters of 100 and 200 nm using a Lipex extruder (Evonik). Liposomes, which had been prepared according to this procedure, was used in fluorimetric studies.
(§2) To investigate these properties three fluorescent probes were used: MC540, TMA-DPH, and DPH. MC540 localizes to the outer, hydrophilic part of the membrane, within the region of the glycerol skeleton[44]. Changes in the fluorescence intensity of this probe were formulated as the relative change in intensity to the control as a function of anthocyanins concentration. The TMA-DPH and DPH probes are supposed to locate nearer to the interface and in the hydrophobic region, respectively[45]. The measurement of changes in the anisotropy of the TMA-DPH and DPH probes allowed us to reflect the mobility of the fluorescent probes in the membrane, and therefore to determine the fluidity of the bilayer[46]. Fluorescence anisotropy was calculated using the formula[47]:1 A=I‖-GI⊥/I‖+2GI⊥ where I‖ and I⊥ are the intensity of fluorescence in parallel and perpendicular directions, to the plane of polarization of the excitation wave, respectively. G is an apparatus constant that depends on the emission wavelength.
(§3) Liposomes (the concentration of lipids in the sample was 0.1 mg/ml) were incubated for 30 min with the appropriate probe (dissolved in DMF, 1 µM concentration), and then the tested anthocyanins were added (final concentration of 1 to 30 µM). The control sample consisted of liposomes and a fluorescent probe. Fluorescence was measured on a fluorimeter (Cary Eclipse, Varian, San Diego, USA) at 37 °C. The excitation wavelengths λex and emission wavelengths λem respectively: MC540—λexc = 540 nm, λem = 590 nm; DPH—λexc = 360 nm, λem = 425 nm. nm; TMA-DPH—λexc = 340 nm, λem = 430 nm.

[3] = DPH fluorescence quenching, dissociation constant with MM liposome membrane; type: binding; details: 37 °C
Procedure: as §1
(§4) The phenomenon of quenching the fluorescence of the DPH probe by biologically active substances enabled us to evaluate the partition coefficient (Kd, dissociation constant) of anthocyanins with both MM and RBCM liposome membranes. For this purpose, changes in the fluorescence intensity of this probe were checked and the coefficient was calculated using the equation[48]:2 1/F0/F-1=Kd/[liposomes]×1/[anthocyanins]+1/liposomes where F0—fluorescence intensity in the absence of anthocyanins (control sample), F—fluorescence intensity in the presence of anthocyanins, [liposomes]—concentration of liposomes in mg/ml, [anthocyanins]—concentration of anthocyanins tested mg/ml.
as §3

[4] = TMA-DPH probe fluorescence anisotropy in RBCM liposomes; parameters: species or system human; details: negative = increase in anisotropy
Text: Two types of liposomes were used to study interactions with biological membranes: liposomes mimicking the composition of cancer cell membranes (mimic membrane liposome—MM) and liposomes formed from lipids extracted from human blood erythrocyte membranes (red blood cell membrane liposome—RBCM). […] The RBCM liposome was according to the methodology described previously[42] with minor modifications[43]. Both lipids, dissolved in chloroform (MM liposome) and n-decane (RBCM liposome), were evaporated under a nitrogen atmosphere, and then dried in a desiccator for 90 min under a vacuum. The obtained dry lipid film was hydrated in phosphate buffer, pH 7.4, obtaining a concentration of 0.1 mg/ml, and then vortexed for one minute until a homogeneous, milky suspension was observed. The mixture was sonicated (Sonic, Milano, Italia) for 15 min keeping the sample in a bath of ice water, thus providing a cooling temperature of 0 °C. The suspension was then processed (extrusion) through polycarbonate filters with pore diameters of 100 and 200 nm using a Lipex extruder (Evonik). Liposomes, which had been prepared according to this procedure, was used in fluorimetric studies.
To investigate these properties three fluorescent probes were used: MC540, TMA-DPH, and DPH. MC540 localizes to the outer, hydrophilic part of the membrane, within the region of the glycerol skeleton[44]. […] The TMA-DPH and DPH probes are supposed to locate nearer to the interface and in the hydrophobic region, respectively[45]. The measurement of changes in the anisotropy of the TMA-DPH and DPH probes allowed us to reflect the mobility of the fluorescent probes in the membrane, and therefore to determine the fluidity of the bilayer[46]. Fluorescence anisotropy was calculated using the formula[47]:1 A=I‖-GI⊥/I‖+2GI⊥ where I‖ and I⊥ are the intensity of fluorescence in parallel and perpendicular directions, to the plane of polarization of the excitation wave, respectively. G is an apparatus constant that depends on the emission wavelength.
as §3

[5] = MC540 probe fluorescence intensity in MM liposomes; details: 37 °C, positive = decrease
Procedure: as §1, §2, §3

pHbApr-1-Neo plasmid DNA = test: TCSPC-FCS of PicoGreen-labelled plasmid DNA with anthocyanins; type: binding
Procedure: To evaluate the biological interaction with DNA molecules the anthocyanins were initially dissolved in ETOH (1 mM). […] Mixing of such solutions with the aqueous DNA solutions used in the studies never exceeded 1% concentration ETOH (v/v) in the final solution. The DNA plasmid was labelled by PicoGreen (CPicoGreen/CDNAbp = 0.02)[52]. The pHbApr-1-Neo plasmid (10 kbp and contour length 3.4 µm) was a generous gift from the laboratory of Prof. Maciej Ugorski (Department of Biochemistry and Molecular Biology, Wrocław University of Environmental and Life Sciences Wroclaw, Poland). PicoGreen-labelled DNA samples mixed with the appropriate amount of anthocyanins were left overnight and then measured. The increasing concentration of anthocyanins in the tested samples was expressed as the ratio of the molar concentration of anthocyanins per molar concentration of DNA base pairs in a given sample (comp/bp). The 100 µl samples were measured in Ibidi 8-well chambers. Each point on the graph is a single sample (average of 10 measurements). All measurements were performed at room temperature (25 °C). Time-correlated single-photon counting fluorescence correlation spectroscopy (TCSPC-FCS) was used to study the interaction of plasmid DNA at the single molecule level with all tested anthocyanins. […] Low power of 1uW (at the back aperture of the objective) was chosen to minimize photobleaching and saturation. In the detection plane, a pinhole (50um in diameter) was used and the signal was collected by a single photon avalanche diode (SPAD, Microphoton Devices, Bolzano, Italy). Photon arrival times were stored using fast electronics (Picoharp 300, PicoQuant) in time-tagged time-resolved recording mode. Two independent times were assigned to each detected photon: (1) a time after the beginning of the measurement and (2) a time after the previous laser pulse. The FCS data analysis was done using home-built routines (DevC++, Bloodshed Software and OriginPro70, OriginLab Corporation). The TCSPC data analysis was performed using SymPhoTime software (PicoQuant). Further details of the data evaluation are given elsewhere.

[6] = DPH probe fluorescence anisotropy in RBCM liposomes; parameters: species or system human; details: RBCM, negative = increase in anisotropy
Procedure: as §1, §2, §3

[7] = DPH fluorescence quenching, dissociation constant with RBCM liposome membrane; type: binding, human; details: 37 °C
Procedure: as §1, §4, §3

[8] = TMA-DPH probe fluorescence anisotropy in MM liposomes; details: negative = increase in anisotropy
Procedure: as §1, §2, §3

[9] = MC540 probe fluorescence intensity in RBCM liposomes; parameters: species or system human; details: 37 °C, positive = decrease
Procedure: as §1, §2, §3

Sequence of human serum albumin (HSA) (P02768 25-609): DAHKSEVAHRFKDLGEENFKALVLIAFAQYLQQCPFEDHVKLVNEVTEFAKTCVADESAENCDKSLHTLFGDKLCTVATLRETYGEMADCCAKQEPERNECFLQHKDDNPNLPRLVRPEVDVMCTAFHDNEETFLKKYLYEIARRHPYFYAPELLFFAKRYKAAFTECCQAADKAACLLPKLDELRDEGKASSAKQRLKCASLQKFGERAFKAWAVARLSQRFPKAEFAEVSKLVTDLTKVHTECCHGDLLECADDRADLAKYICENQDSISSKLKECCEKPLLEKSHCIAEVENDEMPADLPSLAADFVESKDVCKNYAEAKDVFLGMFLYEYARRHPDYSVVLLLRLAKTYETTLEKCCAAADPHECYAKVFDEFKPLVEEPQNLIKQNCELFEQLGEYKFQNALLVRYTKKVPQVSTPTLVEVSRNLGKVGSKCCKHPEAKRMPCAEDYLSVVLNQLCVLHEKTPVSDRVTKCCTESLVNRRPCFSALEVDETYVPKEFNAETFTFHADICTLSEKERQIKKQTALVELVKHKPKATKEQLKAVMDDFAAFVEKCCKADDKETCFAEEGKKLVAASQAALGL

Oc1cc(O)c2cc(O)c(-c3cc(O)c(O)c(O)c3)[o+]c2c1 [Dp, Delphinidin]
Stern Volmer constant KSV [1]: 22.46 ± 1.00 × 10^3 M^−1 | number of binding sites n [1]: 1.03 ± 0.05 | Changes in DPH anisotropy relative to the control ([2]; 1 µM): -8.87±0.24% | Changes in DPH anisotropy relative to the control ([2]; 5 µM): -12.33±0.13% | Changes in DPH anisotropy relative to the control ([2]; 10 µM): -14.45±0.24% | Changes in DPH anisotropy relative to the control ([2]; 20 µM): -16.33±0.38% | Changes in DPH anisotropy relative to the control ([2]; 30 µM): -12.45±0.57% | Kd [3]: 11.5 ± 2.07 µM | Changes in TMA-DPH anisotropy relative to the control ([4]; 1 µM): -5.61±0.35% | Changes in TMA-DPH anisotropy relative to the control ([4]; 5 µM): -2.41±0.11% | Changes in TMA-DPH anisotropy relative to the control ([4]; 10 µM): 1.85±0.06% | Changes in TMA-DPH anisotropy relative to the control ([4]; 20 µM): 1.35±0.15% | Changes in TMA-DPH anisotropy relative to the control ([4]; 30 µM): 4.73±0.21% | Changes in MC540 fluorescence intensity relative to the control ([5]; 1 µM): 13.66±1.64% | Changes in MC540 fluorescence intensity relative to the control ([5]; 5 µM): 26.57±1.99% | Changes in MC540 fluorescence intensity relative to the control ([5]; 10 µM): 41.91±1.76% | Changes in MC540 fluorescence intensity relative to the control ([5]; 20 µM): 63.50±4.28% | Changes in MC540 fluorescence intensity relative to the control ([5]; 30 µM): 73.23±5.31% | Changes in MC540 fluorescence intensity relative to the control ([5]; 30 µM, listed as delphinidin): 73.2 ± 5.3% | change in Particle Number (PN) (pHbApr-1-Neo plasmid DNA; comp/bp 1.0–5.0): no changes | diffusion time (tD), plateau (pHbApr-1-Neo plasmid DNA; comp/bp 1.0–5.0): 25 to 28 ms | lifetime (LT) (pHbApr-1-Neo plasmid DNA; comp/bp 1.0–5.0, decrease from 3.5 ns): about 2.3 ns | decrease in the diffusion time (tD) (pHbApr-1-Neo plasmid DNA; comp/bp = 0.8, from about 70 ms): tenfold | lifetime (LT) (pHbApr-1-Neo plasmid DNA; comp/bp = 0.8, plasmid alone 4.25 ns): about 3.5 ns | Particle Number (PN) (pHbApr-1-Neo plasmid DNA; comp/bp = 0.8, plasmid alone 5): about 1.2 | diffusion time (tD) (pHbApr-1-Neo plasmid DNA; comp/bp = 0.8, plasmid alone about 70 ms): 7.0 ms | changes in plasmid tD, lower compared to those obtained for Pt 3-glc (pHbApr-1-Neo plasmid DNA; comp/bp up to 0.8): about 2 fold | decrease in tD compared to the initial plasmid diffusion time (pHbApr-1-Neo plasmid DNA; plateau, comp/bp 1.0–5.0): twofold | Changes in DPH anisotropy relative to the control ([6]; 1 µM): -9.06±0.14% | Changes in DPH anisotropy relative to the control ([6]; 5 µM): -9.32±0.41% | Changes in DPH anisotropy relative to the control ([6]; 10 µM): -6.55±0.22% | Changes in DPH anisotropy relative to the control ([6]; 20 µM): -8.84±0.31% | Changes in DPH anisotropy relative to the control ([6]; 30 µM): -7.33±0.24% | Kd [7]: 9.89 ± 1.96 µM | Changes in TMA-DPH anisotropy relative to the control ([8]; 1 µM): -5.27±0.20% | Changes in TMA-DPH anisotropy relative to the control ([8]; 5 µM): -5.27±0.16% | Changes in TMA-DPH anisotropy relative to the control ([8]; 10 µM): -2.04±0.17% | Changes in TMA-DPH anisotropy relative to the control ([8]; 20 µM): 0.86±0.02% | Changes in TMA-DPH anisotropy relative to the control ([8]; 30 µM): -7.43±0.30% | Changes in MC540 fluorescence intensity relative to the control ([9]; 1 µM): 19.22±0.56% | Changes in MC540 fluorescence intensity relative to the control ([9]; 5 µM): 30.39±0.90% | Changes in MC540 fluorescence intensity relative to the control ([9]; 10 µM): 42.45±2.77% | Changes in MC540 fluorescence intensity relative to the control ([9]; 20 µM): 58.15±3.73% | Changes in MC540 fluorescence intensity relative to the control ([9]; 30 µM): 64.08±6.62% | Changes in MC540 fluorescence intensity relative to the control ([9]; 30 µM, listed as delphinidin): 64.1 ± 6.6%

COc1cc(-c2[o+]c3cc(O)cc(O)c3cc2OC2OC(CO)C(O)C(O)C2O)ccc1O (stereo not shown) [Pn 3-glc, Peonidin 3-O-glucoside]
Stern Volmer constant KSV [1]: 11.93 ± 1.61 × 10^3 M^−1 | number of binding sites n [1]: 0.91 ± 0.09 | Changes in DPH anisotropy relative to the control ([2]; 1 µM): -7.68±0.11% | Changes in DPH anisotropy relative to the control ([2]; 5 µM): -6.50±0.15% | Changes in DPH anisotropy relative to the control ([2]; 10 µM): -6.27±0.08% | Changes in DPH anisotropy relative to the control ([2]; 20 µM): -3.12±0.03% | Changes in DPH anisotropy relative to the control ([2]; 30 µM): -0.39±0.01% | Kd [3]: 114 ± 17.2 µM | Changes in TMA-DPH anisotropy relative to the control ([4]; 1 µM): -2.75±0.12% | Changes in TMA-DPH anisotropy relative to the control ([4]; 5 µM): -0.59±0.03% | Changes in TMA-DPH anisotropy relative to the control ([4]; 10 µM): -0.56±0.02% | Changes in TMA-DPH anisotropy relative to the control ([4]; 20 µM): -0.61±0.03% | Changes in TMA-DPH anisotropy relative to the control ([4]; 30 µM): 0.65±0.04% | Changes in MC540 fluorescence intensity relative to the control ([5]; 1 µM): 6.40±0.34% | Changes in MC540 fluorescence intensity relative to the control ([5]; 5 µM): 10.52±0.67% | Changes in MC540 fluorescence intensity relative to the control ([5]; 10 µM): 14.98±0.94% | Changes in MC540 fluorescence intensity relative to the control ([5]; 20 µM): 24.13±1.45% | Changes in MC540 fluorescence intensity relative to the control ([5]; 30 µM): 35.68±1.88% | lifetime (LT) (pHbApr-1-Neo plasmid DNA; 0 < comp/bp < 1, decrease from 4.25 ns): about 3.25 ns | lifetime (LT) (pHbApr-1-Neo plasmid DNA; comp/bp from 1 to 10, minor further decrease): about 2.75 ns | decrease in the diffusion time (tD) (pHbApr-1-Neo plasmid DNA; tested range of comp/bp from 0 to 10): 2.5 fold | Changes in DPH anisotropy relative to the control ([6]; 1 µM): -5.23±0.04% | Changes in DPH anisotropy relative to the control ([6]; 5 µM): -2.72±0.08% | Changes in DPH anisotropy relative to the control ([6]; 10 µM): -2.02±0.05% | Changes in DPH anisotropy relative to the control ([6]; 20 µM): -0.79±0.03% | Changes in DPH anisotropy relative to the control ([6]; 30 µM): -0.03±0.002% | Kd [7]: 28.2 ± 5.11 µM | Changes in TMA-DPH anisotropy relative to the control ([8]; 1 µM): -3.26±0.11% | Changes in TMA-DPH anisotropy relative to the control ([8]; 5 µM): -0.96±0.03% | Changes in TMA-DPH anisotropy relative to the control ([8]; 10 µM): 0.69±0.02% | Changes in TMA-DPH anisotropy relative to the control ([8]; 20 µM): 0.19±0.003% | Changes in TMA-DPH anisotropy relative to the control ([8]; 30 µM): 1.63±0.05% | Changes in MC540 fluorescence intensity relative to the control ([9]; 1 µM): 16.40±0.66% | Changes in MC540 fluorescence intensity relative to the control ([9]; 5 µM): 20.98±1.80% | Changes in MC540 fluorescence intensity relative to the control ([9]; 10 µM): 29.53±2.47% | Changes in MC540 fluorescence intensity relative to the control ([9]; 20 µM): 38.00±0.57% | Changes in MC540 fluorescence intensity relative to the control ([9]; 30 µM): 50.34±2.93%
